Measurements taken from US20260092179A1, “GENETICALLY MODIFIED HOST CELLS PRODUCING VIOLACEIN, ANALOGUES, AND DERIVATIVES THEREOF” (OCTARINE BIO APS, priority 2022, published 2026).

Tests used:
Type in all cases: physicochemical
[1] = Alkaline pH stability of dyed fabrics (colour fastness, ΔE); conditions: pH 8 with NaOH
Protocol: (§1) In order to assess the stability and colour fastness of violacein and violacein derivatives dyed onto fabrics, dyed fabrics were subjected to a number of conditions. Fabrics were dyed according to Example 18 and colour coordinates and colour change before and after exposure to a given condition were determined as described in Example 18. To measure temperature stability, fabrics were incubated in an oven set to 80° c. for 4 h. To measure stability under acid and alkaline conditions, fabrics were fully submerged in water solutions set to pH 8 with NaOH and pH 5 with HCl and incubated at room temperature for 30 minutes. Fabrics were then incubated at 37° c. for 4 h. To measure stability during laundering, fabrics were washed at 30° c. under the “mix” setting of a Siemens IQ300 washing machine, then dried in a Siemens IQ300 dryer until dry. To measure artificial light stability, fabrics were placed under an LED lamp at room temperature for 16 h. To measure UV light stability, fabrics were placed under a UV lamp at room temperature for 1 h.

[2] = UV stability of dyed fabrics (colour fastness, ΔE); conditions: for ΔE: before vs after UV lamp, room temperature, 1 h
Protocol: as §1

[3] = Acidic pH stability of dyed fabrics (colour fastness, ΔE); conditions: pH 5 with HCl
Protocol: as §1

[4] = Acrylic, before and after the stability test
[5] = Bleached cotton, before and after the stability test
[6] = Diacetate, before and after the stability test
[7] = Nylon 6,6, before and after the stability test
[8] = Polyester, before and after the stability test
[9] = Wool, before and after the stability test
[10] = Acrylic, after test (UV lamp, room temperature, 1 h)
[11] = Bleached cotton, after test (UV lamp, room temperature, 1 h)
[12] = Diacetate, after test (UV lamp, room temperature, 1 h)
[13] = Nylon 6,6, after test (UV lamp, room temperature, 1 h)
[14] = Polyester, after test (UV lamp, room temperature, 1 h)
[15] = Wool, after test (UV lamp, room temperature, 1 h)

L ([1]; Acrylic, After test): 59.52
a ([1]; Acrylic, After test): 0.99
b ([1]; Acrylic, After test): −2.75
L ([1]; Acrylic, Before test): 60.91
a ([1]; Acrylic, Before test): 1.48
b ([1]; Acrylic, Before test): −2.6
ΔE [1, 4]: 1.48
L ([1]; Bleached cotton, After test): 62.83
a ([1]; Bleached cotton, After test): 2.23
b ([1]; Bleached cotton, After test): −8.43
L ([1]; Bleached cotton, Before test): 61.33
a ([1]; Bleached cotton, Before test): 1.92
b ([1]; Bleached cotton, Before test): −9.6
ΔE [1, 5]: 1.93
L ([1]; Diacetate, After test): 53.77
a ([1]; Diacetate, After test): 9.48
b ([1]; Diacetate, After test): −13.38
L ([1]; Diacetate, Before test): 53.4
a ([1]; Diacetate, Before test): 9.48
b ([1]; Diacetate, Before test): −14.88
ΔE [1, 6]: 1.54
L ([1]; Nylon 6,6, After test): 46
a ([1]; Nylon 6,6, After test): 4.44
b ([1]; Nylon 6,6, After test): −20.31
L ([1]; Nylon 6,6, Before test): 45.47
a ([1]; Nylon 6,6, Before test): 6.49
b ([1]; Nylon 6,6, Before test): −22.12
ΔE [1, 7]: 2.79
L ([1]; Polyester, After test): 67.22
a ([1]; Polyester, After test): 2.02
b ([1]; Polyester, After test): −3.88
L ([1]; Polyester, Before test): 66.7
a ([1]; Polyester, Before test): 1.3
b ([1]; Polyester, Before test): −4.19
ΔE [1, 8]: 0.94
L ([1]; Wool, After test): 66.95
a ([1]; Wool, After test): 0.82
b ([1]; Wool, After test): −0.41
L ([1]; Wool, Before test): 65.33
a ([1]; Wool, Before test): 0.19
b ([1]; Wool, Before test): 0.13
ΔE [1, 9]: 1.82
L [2, 10]: 61.34
a [2, 10]: 2.05
b [2, 10]: −2.89
L ([2]; Acrylic, before test): 60.15
a ([2]; Acrylic, before test): 1.07
b ([2]; Acrylic, before test): −2.07
ΔE ([2]; Acrylic): 1.75
L [2, 11]: 62.17
a [2, 11]: 1.62
b [2, 11]: −6.68
L ([2]; Bleached cotton, before test): 61.4
a ([2]; Bleached cotton, before test): 1.8
b ([2]; Bleached cotton, before test): −7.92
ΔE ([2]; Bleached cotton): 1.47
L [2, 12]: 53.68
a [2, 12]: 8.75
b [2, 12]: −10.95
L ([2]; Diacetate, before test): 52.05
a ([2]; Diacetate, before test): 9.98
b ([2]; Diacetate, before test): −14.88
ΔE ([2]; Diacetate): 4.43
L [2, 13]: 46.19
a [2, 13]: 4.4
b [2, 13]: −19.75
L ([2]; Nylon 6,6, before test): 45.92
a ([2]; Nylon 6,6, before test): 4.94
b ([2]; Nylon 6,6, before test): −21.23
ΔE ([2]; Nylon 6,6): 1.60
L [2, 14]: 67.09
a [2, 14]: 1.19
b [2, 14]: −3.68
L ([2]; Polyester, before test): 66.55
a ([2]; Polyester, before test): 1.03
b ([2]; Polyester, before test): −2.87
ΔE ([2]; Polyester): 0.99
L [2, 15]: 67.65
a [2, 15]: 0.75
b [2, 15]: 1.17
L ([2]; Wool, before test): 65.56
a ([2]; Wool, before test): 0.65
b ([2]; Wool, before test): 0.31
ΔE ([2]; Wool): 2.26
L ([3]; Acrylic, After test): 59.8
a ([3]; Acrylic, After test): 2.01
b ([3]; Acrylic, After test): −3.77
L ([3]; Acrylic, Before test): 58.82
a ([3]; Acrylic, Before test): 2.34
b ([3]; Acrylic, Before test): −2.86
ΔE [3, 4]: 1.38
L ([3]; Bleached cotton, After test): 60.27
a ([3]; Bleached cotton, After test): 0.74
b ([3]; Bleached cotton, After test): −8.67
L ([3]; Bleached cotton, Before test): 58.08
a ([3]; Bleached cotton, Before test): 1.02
b ([3]; Bleached cotton, Before test): −7.23
ΔE [3, 5]: 2.64
L ([3]; Diacetate, After test): 46.41
a ([3]; Diacetate, After test): 12.25
b ([3]; Diacetate, After test): −16.83
L ([3]; Diacetate, Before test): 46.86
a ([3]; Diacetate, Before test): 12.01
b ([3]; Diacetate, Before test): −17.99
ΔE [3, 6]: 1.27
L ([3]; Nylon 6,6, After test): 44.46
a ([3]; Nylon 6,6, After test): 6.37
b ([3]; Nylon 6,6, After test): −22.27
L ([3]; Nylon 6,6, Before test): 43
a ([3]; Nylon 6,6, Before test): 5.21
b ([3]; Nylon 6,6, Before test): −20.47
ΔE [3, 7]: 2.59
L ([3]; Polyester, After test): 64.95
a ([3]; Polyester, After test): 2.03
b ([3]; Polyester, After test): −5.57
L ([3]; Polyester, Before test): 62.77
a ([3]; Polyester, Before test): 2
b ([3]; Polyester, Before test): −5.04
ΔE [3, 8]: 2.24
L ([3]; Wool, After test): 64.01
a ([3]; Wool, After test): 0.41
b ([3]; Wool, After test): −0.81
L ([3]; Wool, Before test): 63.73
a ([3]; Wool, Before test): 0.62
b ([3]; Wool, Before test): −0.94
ΔE [3, 9]: 0.37
Compound: O=C1NC(c2c[nH]c3ccccc23)=C/C1=C1\C(=O)Nc2ccccc21 [deoxyviolacein]
